In assay [1] the test system is PCR of whole genomic mycobacterial DNA (Taq polymerase, primers Tb11 and Tb12). The assay can be described thus: Reversible inhibition of PCR amplification by DNA binding ligand, product analyzed by gel electrophoresis. It is filed as biochemical. The protocol: AMT is purchased from Sigma Chem. Co., St. Louis, Mo. A stock solution of 5 mg/mL AMT is prepared in de-ionized water. An amplification cocktail is prepared containing 200 picomoles of primers Tb11 and Tb12 (Devallois et al., J. Clin. Microbiol., 35:2669-73 (1997)), 1.25 units of Taq polymerase/100 μL, 200 μM dNTPs and 0.05 mg/mL AMT in a Tris-EDTA buffer, pH 7. A corresponding solution without AMT is prepared as a control.
Amplification is performed in Eppendorf tubes to which are added 0.5 μg of whole genomic mycobacterial DNA in 50 μl of buffer and either 1 μl or 10 μl of the amplification cocktail. Final volume is adjusted to 100 μl with the aqueous buffer solution (without AMT) so that the final concentrations of all PCR components, except AMT, is the same in all replicates. Controls received an amplification cocktail without AMT.
PCR amplification is performed for 45 cycles (92° C.-56° C.-72° C.; denaturation, annealing, extension) and the product analyzed by gel electrophoresis. […]

Another assay relates to nucleic acids. The following applies: Haq et al. 1997; cited from earlier work.
Assay [2] relates to transcription mediated amplification reaction. The following applies: Della-Latta et al. 1999; cited from earlier work.
For another assay, the system named is ligase chain reaction. The following applies: Notomi et al. 1998; cited from earlier work.

Bounds are passed on as bounds.

`Cc1oc2c(C)c3oc(=O)cc(C)c3cc2c1CN` [AMT, 4′-aminomethyltrioxsalen]: the “amplification product in PCR” value in assay [1] (0.5 μg/mL AMT, 45 cycles) is on record as “detectable amplification product is produced”. The “inhibition of the PCR” value in assay [1] (5 μg/mL AMT, 45 cycles) is given as “complete inhibition”. Besides, the “amount of amplification product” value in assay [1] (lower concentrations of AMT: 5 ng/mL and 0.5 ng/mL) was “continues to increase”.
For `CN1CCN(c2ccc3[nH]c(-c4ccc5[nH]c(-c6ccc(O)cc6)nc5c4)nc3c2)CC1` [Hoechst 33258], the “affinity for nucleic acid” value in the assay on nucleic acids is at most 3.2e+08 M⁻¹.
On to `O=P(O)(O)O` [phosphate ion], for which the “inhibitory concentration for a transcription mediated reaction” value in assay [2] is given as “about 0.7 mM”. In addition, the “concentration inhibitory for a ligase chain reaction” value in the assay on ligase chain reaction was “above 1.2 mM”.

The record behind these values is US6379930B1, “Stabilization of nucleic acid amplification cocktails” (Applied Gene Technologies, Inc., priority 1999, dated 2002).
